Reference: the supplement of paper PMC10307832

Key:
Test in all cases: relative viability (nuclei count vs DMSO), 5 days (fraction); higher = more cells survive
HARA = tested on: HARA
How it was run: (§1)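 Five library-drug doses in √10 steps were combined with a fixed anchor-drug dose, or a single drug was given alone, by pin tool to lung cancer cell lines in 1536-well plates the day after seeding. Nuclei were stained and counted after 5 days. Relative viability is the nuclei count in treated wells over that in vehicle wells, taken as the median of duplicate plates.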

LOU-NH91 = tested on: LOU-NH91
How it was run: as §1

NCI-H23 = tested on: NCI-H23
How it was run: as §1

LXF-289 = tested on: LXF-289
How it was run: as §1

PC-3 [JPC-3] = tested on: PC-3 [JPC-3]
How it was run: as §1

NCI-H647 = tested on: NCI-H647
How it was run: as §1

LCLC-103H = tested on: LCLC-103H
How it was run: as §1

COR-L23 = tested on: COR-L23
How it was run: as §1

NCI-H1793 = tested on: NCI-H1793
How it was run: as §1

NCI-H1651 = tested on: NCI-H1651
How it was run: as §1

NCI-H838 = tested on: NCI-H838
How it was run: as §1

NCI-H522 = tested on: NCI-H522
How it was run: as §1

RERF-LC-KJ = tested on: RERF-LC-KJ
How it was run: as §1

LCLC-97TM1 = tested on: LCLC-97TM1
How it was run: as §1

UMC-11 = tested on: UMC-11
How it was run: as §1

LK-2 = tested on: LK-2
How it was run: as §1

NCI-H1650 = tested on: NCI-H1650
How it was run: as §1

NCI-H2347 = tested on: NCI-H2347
How it was run: as §1

A-427 = tested on: A-427
How it was run: as §1

201T = tested on: 201T
How it was run: as §1

NCI-H520 = tested on: NCI-H520
How it was run: as §1

HCC-78 = tested on: HCC-78
How it was run: as §1

NCI-H2405 = tested on: NCI-H2405
How it was run: as §1

Cc1csc(=NC2CCCCC2)n1/N=C/c1ccc(O)c(O)c1O [MIM1] + O=C(c1cc(Cc2n[nH]c(=O)c3ccccc23)ccc1F)N1CCN(C(=O)C2CC2)CC1 [Olaparib] (partner 8 µM)
relative viability (HARA; first compound 0.2 µM): 0.792 | relative viability (HARA; first compound 0.6325 µM): 1.06 | relative viability (HARA; first compound 2 µM): 0.824 | relative viability (HARA; first compound 6.325 µM): 0.187 | relative viability (HARA; first compound 20 µM): 0.177 | relative viability (LOU-NH91; first compound 0.2 µM): 0.92 | relative viability (LOU-NH91; first compound 0.6325 µM): 0.922 | relative viability (LOU-NH91; first compound 2 µM): 0.596 | relative viability (LOU-NH91; first compound 6.325 µM): 0.589 | relative viability (LOU-NH91; first compound 20 µM): 0.369 | relative viability (NCI-H23; first compound 0.2 µM): 0.302 | relative viability (NCI-H23; first compound 0.6325 µM): 0.266 | relative viability (NCI-H23; first compound 2 µM): 0.215 | relative viability (NCI-H23; first compound 6.325 µM): 0.111 | relative viability (NCI-H23; first compound 20 µM): 0.13 | relative viability (LXF-289; first compound 0.2 µM): 1.04 | relative viability (LXF-289; first compound 0.6325 µM): 0.844 | relative viability (LXF-289; first compound 2 µM): 1.13 | relative viability (LXF-289; first compound 6.325 µM): 0.915 | relative viability (LXF-289; first compound 20 µM): 0.179 | relative viability (PC-3 [JPC-3]; first compound 0.2 µM): 1.14 | relative viability (PC-3 [JPC-3]; first compound 0.6325 µM): 1.04 | relative viability (PC-3 [JPC-3]; first compound 2 µM): 1.07 | relative viability (PC-3 [JPC-3]; first compound 6.325 µM): 0.871 | relative viability (PC-3 [JPC-3]; first compound 20 µM): 0.504 | relative viability (NCI-H647; first compound 0.2 µM): 0.611 | relative viability (NCI-H647; first compound 0.6325 µM): 0.53 | relative viability (NCI-H647; first compound 2 µM): 0.697 | relative viability (NCI-H647; first compound 6.325 µM): 0.369 | relative viability (NCI-H647; first compound 20 µM): 0.0666 | relative viability (LCLC-103H; first compound 0.2 µM): 0.814 | relative viability (LCLC-103H; first compound 0.6325 µM): 0.771 | relative viability (LCLC-103H; first compound 2 µM): 0.782 | relative viability (LCLC-103H; first compound 6.325 µM): 0.532 | relative viability (LCLC-103H; first compound 20 µM): 0.336 | relative viability (COR-L23; first compound 0.2 µM): 0.29 | relative viability (COR-L23; first compound 0.6325 µM): 0.365 | relative viability (COR-L23; first compound 2 µM): 0.287 | relative viability (COR-L23; first compound 6.325 µM): 0.224 | relative viability (COR-L23; first compound 20 µM): 0.164 | relative viability (NCI-H1793; first compound 0.2 µM): 0.942 | relative viability (NCI-H1793; first compound 2 µM): 0.899 | relative viability (NCI-H1793; first compound 6.325 µM): 0.686 | relative viability (NCI-H1793; first compound 20 µM): 0.839 | relative viability (NCI-H1651; first compound 0.2 µM): 0.184 | relative viability (NCI-H1651; first compound 0.6325 µM): 0.174 | relative viability (NCI-H1651; first compound 2 µM): 0.177 | relative viability (NCI-H1651; first compound 6.325 µM): 0.159 | relative viability (NCI-H1651; first compound 20 µM): 0.153 | relative viability (NCI-H838; first compound 0.2 µM): 0.731 | relative viability (NCI-H838; first compound 0.6325 µM): 0.944 | relative viability (NCI-H838; first compound 2 µM): 0.85 | relative viability (NCI-H838; first compound 6.325 µM): 0.609 | relative viability (NCI-H838; first compound 20 µM): 0.237 | relative viability (NCI-H522; first compound 0.2 µM): 0.597 | relative viability (NCI-H522; first compound 0.6325 µM): 0.625 | relative viability (NCI-H522; first compound 2 µM): 0.587 | relative viability (NCI-H522; first compound 6.325 µM): 0.725 | relative viability (NCI-H522; first compound 20 µM): 0.466 | relative viability (RERF-LC-KJ; first compound 0.2 µM): 0.662 | relative viability (RERF-LC-KJ; first compound 0.6325 µM): 0.557 | relative viability (RERF-LC-KJ; first compound 2 µM): 0.197 | relative viability (RERF-LC-KJ; first compound 6.325 µM): 0.221 | relative viability (RERF-LC-KJ; first compound 20 µM): 0.215 | relative viability (LCLC-97TM1; first compound 0.2 µM): 0.436 | relative viability (LCLC-97TM1; first compound 0.6325 µM): 0.46 | relative viability (LCLC-97TM1; first compound 2 µM): 0.343 | relative viability (LCLC-97TM1; first compound 6.325 µM): 0.24 | relative viability (LCLC-97TM1; first compound 20 µM): 0.0564 | relative viability (UMC-11; first compound 0.2 µM): 0.408 | relative viability (UMC-11; first compound 0.6325 µM): 0.4 | relative viability (UMC-11; first compound 2 µM): 0.548 | relative viability (UMC-11; first compound 6.325 µM): 0.237 | relative viability (UMC-11; first compound 20 µM): 0.183 | relative viability (LK-2; first compound 0.2 µM): 0.934 | relative viability (LK-2; first compound 0.6325 µM): 0.75 | relative viability (LK-2; first compound 2 µM): 0.472 | relative viability (LK-2; first compound 6.325 µM): 0.685 | relative viability (LK-2; first compound 20 µM): 0.148 | relative viability (NCI-H1650; first compound 0.2 µM): 0.627 | relative viability (NCI-H1650; first compound 0.6325 µM): 0.828 | relative viability (NCI-H1650; first compound 2 µM): 0.499 | relative viability (NCI-H1650; first compound 6.325 µM): 0.226 | relative viability (NCI-H1650; first compound 20 µM): 0.233 | relative viability (NCI-H2347; first compound 0.2 µM): 0.525 | relative viability (NCI-H2347; first compound 0.6325 µM): 0.559 | relative viability (NCI-H2347; first compound 2 µM): 0.653 | relative viability (NCI-H2347; first compound 6.325 µM): 0.508 | relative viability (NCI-H2347; first compound 20 µM): 0.469 | relative viability (A-427; first compound 0.2 µM): 0.757 | relative viability (A-427; first compound 0.6325 µM): 0.738 | relative viability (A-427; first compound 2 µM): 0.71 | relative viability (A-427; first compound 6.325 µM): 0.671 | relative viability (A-427; first compound 20 µM): 0.281 | relative viability (201T; first compound 0.2 µM): 0.833 | relative viability (201T; first compound 0.6325 µM): 0.863 | relative viability (201T; first compound 2 µM): 0.831 | relative viability (201T; first compound 6.325 µM): 0.415 | relative viability (201T; first compound 20 µM): 0.396 | relative viability (NCI-H520; first compound 0.2 µM): 0.333 | relative viability (NCI-H520; first compound 0.6325 µM): 0.346 | relative viability (NCI-H520; first compound 2 µM): 0.349 | relative viability (NCI-H520; first compound 6.325 µM): 0.242 | relative viability (NCI-H520; first compound 20 µM): 0.209 | relative viability (HCC-78; first compound 0.2 µM): 0.716 | relative viability (HCC-78; first compound 2 µM): 0.906 | relative viability (HCC-78; first compound 6.325 µM): 0.47 | relative viability (HCC-78; first compound 20 µM): 0.462 | relative viability (NCI-H2405; first compound 0.2 µM): 0.881 | relative viability (NCI-H2405; first compound 0.6325 µM): 0.918 | relative viability (NCI-H2405; first compound 2 µM): 0.827 | relative viability (NCI-H2405; first compound 6.325 µM): 0.681 | relative viability (NCI-H2405; first compound 20 µM): 0.369
